Experimental findings from US10717716B2, “1,3,4-oxadiazole derivative compounds as histone deacetylase 6 inhibitor, and the pharmaceutical composition comprising the same” (Chong Kun Dang Pharmaceutical Corp., priority 2015, dated 2020) are described below.

The target of this assay is T1, human recombinant HDAC6 (Homo sapiens, UniProt Q9UBN7).
T1 construct: purchased Calbiochem 382180
T1 sequence (Q9UBN7 1-1215): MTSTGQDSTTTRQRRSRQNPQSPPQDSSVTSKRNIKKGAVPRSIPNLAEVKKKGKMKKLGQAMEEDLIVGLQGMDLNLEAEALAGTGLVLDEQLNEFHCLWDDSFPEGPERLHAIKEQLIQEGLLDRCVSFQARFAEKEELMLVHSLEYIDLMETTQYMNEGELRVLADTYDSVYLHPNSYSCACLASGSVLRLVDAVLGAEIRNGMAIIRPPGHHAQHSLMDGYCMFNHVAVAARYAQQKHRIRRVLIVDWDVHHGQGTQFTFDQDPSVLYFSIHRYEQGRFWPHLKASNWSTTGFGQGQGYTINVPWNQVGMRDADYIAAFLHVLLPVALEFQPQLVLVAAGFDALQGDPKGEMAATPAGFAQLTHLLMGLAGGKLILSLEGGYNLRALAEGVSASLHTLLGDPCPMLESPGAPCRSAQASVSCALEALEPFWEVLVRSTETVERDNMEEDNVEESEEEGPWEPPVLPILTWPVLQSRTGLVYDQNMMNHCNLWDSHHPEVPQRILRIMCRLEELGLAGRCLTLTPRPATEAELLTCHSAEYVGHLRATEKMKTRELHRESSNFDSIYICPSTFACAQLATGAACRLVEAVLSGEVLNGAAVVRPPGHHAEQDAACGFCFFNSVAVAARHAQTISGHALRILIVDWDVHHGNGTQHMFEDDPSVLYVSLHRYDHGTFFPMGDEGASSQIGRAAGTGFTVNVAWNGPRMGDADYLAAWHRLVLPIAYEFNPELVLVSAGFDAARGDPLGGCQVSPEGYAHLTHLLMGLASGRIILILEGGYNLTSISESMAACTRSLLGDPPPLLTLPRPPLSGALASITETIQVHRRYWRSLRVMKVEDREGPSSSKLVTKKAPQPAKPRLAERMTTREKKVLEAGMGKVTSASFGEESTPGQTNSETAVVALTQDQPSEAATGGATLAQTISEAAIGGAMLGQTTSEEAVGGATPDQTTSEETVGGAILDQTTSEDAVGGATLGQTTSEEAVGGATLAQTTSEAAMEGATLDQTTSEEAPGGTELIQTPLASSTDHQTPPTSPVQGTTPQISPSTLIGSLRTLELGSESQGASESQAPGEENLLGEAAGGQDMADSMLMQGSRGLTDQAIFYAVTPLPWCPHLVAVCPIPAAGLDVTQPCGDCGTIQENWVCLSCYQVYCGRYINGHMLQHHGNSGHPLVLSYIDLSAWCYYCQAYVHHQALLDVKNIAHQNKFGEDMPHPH
As to the kind of experiment: HDAC6 enzyme activity inhibition assay (HDAC Fluorimetric Drug Discovery Kit). The assay is classed as biochemical. As to conditions: for HDAC6 selectivity (fold): HDAC6 over HDAC1; for IC50: human recombinant HDAC6, same protocol as HDAC1, read-out: HDAC6. Summed up:
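Fluorimetric deacetylase assay: 5-fold serial compound dilutions, 0.3 μg recombinant human enzyme (HDAC1 or HDAC6, same protocol), 10 μM Fluor de Lys-SIRT1 substrate, 60 min at 30 °C. Signal developed 30 min, measured at 360/460 nm; IC50 values derived.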

Structures are written as SMILES.

Turning to `CN1CC2(CCN(C(=O)N(Cc3ccc(-c4nnc(C(F)F)o4)cc3F)c3ccccc3)CC2)C1` [Compound 21496, N-(4-(5-(difluoromethyl)-1,3,4-oxadiazol-2-yl)-2-fluorobenzyl)-2-methyl-N-phenyl-2,7-diazaspiro[3.5]nonane-7-carboxamide], the “HDAC6 selectivity (fold)” value amounted to 500 fold and the IC50 was found to be 20 nM.
For `O=C(N1CC2(CCNCC2)C1)N(Cc1ccc(-c2nnc(C(F)F)o2)cc1F)c1ccccc1` [Compound 21497, N-(4-(5-(difluoromethyl)-1,3,4-oxadiazol-2-yl)-2-fluorobenzyl)-N-phenyl-2,7-diazaspiro[3.5]nonane-2-carboxamide], in that order: 294 fold and 34 nM.
For `CN1CCC2(CC1)CN(C(=O)N(Cc1ccc(-c3nnc(C(F)F)o3)cc1F)c1ccccc1)C2` [Compound 21498, N-(4-(5-(difluoromethyl)-1,3,4-oxadiazol-2-yl)-2-fluorobenzyl)-7-methyl-N-phenyl-2,7-diazaspiro[3.5]nonane-2-carboxamide], in that order: 714 fold and 14 nM.
Regarding `CCN1CCC2(CC1)CN(C(=O)N(Cc1ccc(-c3nnc(C(F)F)o3)cc1F)c1ccccc1)C2` [Compound 21499, N-(4-(5-(difluoromethyl)-1,3,4-oxadiazol-2-yl)-2-fluorobenzyl)-7-ethyl-N-phenyl-2,7-diazaspiro[3.5]nonane-2-carboxamide], the “HDAC6 selectivity (fold)” value is reported as 588 fold and the IC50 came to 17 nM.
The matching figures for `CC(=O)N1CCC2(CC1)CN(C(=O)N(Cc1ccc(-c3nnc(C(F)F)o3)cc1F)c1ccccc1)C2` [Compound 21500, 7-Acetyl-N-(4-(5-(difluoromethyl)-1,3,4-oxadiazol-2-yl)-2-fluorobenzyl)-N-phenyl-2,7-diazaspiro[3.5]nonane-2-carboxamide]: 400 fold and 25 nM.
For `CS(=O)(=O)N1CCC2(CC1)CN(C(=O)N(Cc1ccc(-c3nnc(C(F)F)o3)cc1F)c1ccccc1)C2` [Compound 21501, N-(4-(5-(difluoromethyl)-1,3,4-oxadiazol-2-yl)-2-fluorobenzyl)-7-(methylsulfonyl)-N-phenyl-2,7-diazaspiro[3.5]nonane-2-carboxamide], in that order: 357 fold and 28 nM.
As to `O=C(N1CCS(=O)(=O)CC1)N(Cc1ccc(-c2nnc(C(F)F)o2)cc1)c1cccc(-c2ccccc2)c1` [Compound 21502, N-([1,1′-biphenyl]-3-yl)-N-(4-(5-(difluoromethyl)-1,3,4-oxadiazol-2-yl)benzyl)thiomorpholine-4-carboxamide 1,1-dioxide], the “HDAC6 selectivity (fold)” value is recorded as 36 fold and the IC50 worked out at 279 nM.
Take `CCc1ccc(N(Cc2ccc(-c3nnc(C(F)(F)F)o3)cc2F)C(=O)N2CCS(=O)(=O)CC2)cc1` [Compound 21511, N-(4-ethylphenyl)-N-(2-fluoro-4-(5-(trifluoromethyl)-1,3,4-oxadiazol-2-yl)benzyl)thiomorpholine-4-carboxamide 1,1-dioxide]: the “HDAC6 selectivity (fold)” value was determined as 30 fold and the IC50 was determined as 332 nM.
For `CCc1ccc(N(Cc2ccc(-c3nnc(C(F)F)o3)cc2F)C(=O)N2CCS(=O)(=O)CC2)cc1` [Compound 21512, N-(4-(5-(difluoromethyl)-1,3,4-oxadiazol-2-yl)-2-fluorobenzyl)-N-(4-ethylphenyl)thiomorpholine-4-carboxamide 1,1-dioxide], in that order: 108 fold and 93 nM.
The matching figures for `O=C(N1CCS(=O)(=O)CC1)N(Cc1ccc(-c2nnc(C(F)(F)F)o2)cc1F)c1ccc(OC(F)(F)F)cc1` [Compound 21513, N-(2-fluoro-4-(5-(trifluoromethyl)-1,3,4-oxadiazol-2-yl)benzyl)-N-(4-(trifluoromethoxy)phenyl)thiomorpholine-4-carboxamide 1,1-dioxide]: 47 fold and 212 nM.
